Data taken from US12005068B2, “Formulation including doxycycline hyclate and method for administering the same” (priority 2017, dated 2024).

Legend:
Format in all cases: in vivo
[1] = tested on: chemotherapy induced peripheral neuropathy; test: Example 1: human subject with chemotherapy induced peripheral neuropathy, Treatment-Induced Neuropathy Assessment Scale and reported symptoms; conditions: patient history before the disclosed treatment
Description: A patient complained of a tingling and burning sensation in their hands and feet that began shortly after they commenced chemotherapy. The patient had been previously diagnosed with primary peritoneal cervical cancer. While it was recommended that the patient undergo chemotherapy treatment for 18 weeks, the patient was unable to tolerate the side effects of the treatment after 11 weeks and ceased the treatment sessions. […] The patient experienced the same side effects again and sought help to alleviate their pain.
Upon physical examination by a practicing physician their gait was abnormal. Some of their symptoms included: • (a) The patient had poor coordination. In particular, when the patient would stop looking at their feet, they would lose all sense of proprioception (i.e., their sense of the relative position of the body and strength of effort being employed in movement) was lost. The patient thus used a cane as they had trouble with stability. • (b) The patient's sense of touch was poor. For example, the patient could not distinguish different textures as everything felt like silk to them. • (c) The patient's sense of temperature was also poor. […] • (d) There was an altered temperature sensation. They were hyper sensitized to slight changes in temperature. […] They could not write, hold a phone, pick up change, buckle themself in a seat, or dress themself. In the absence of a stimulus, the patient felt the tingling, burning sensations in their hands and feet. • (e) The patient's sensations would be exacerbated upon the introduction of a non-noxious stimulus.
Based on the above, the patient was diagnosed with chemotherapy induced peripheral neuropathy. […] Some of the attempted medications were PERCOSET, GABAPENTIN, TYLENOL, ADVIL, LIDOCAINE, and CAPSAICIN. Numerous other over-the-counter medications were tried. Other attempted treatments included acupuncture.
In an embodiment of the presently disclosed treatment, a formulation of topical doxycycline hyclate suspension at a concentration of 400 mg/g. The prescribed administration included applying the formulation to the patient's hands and feet 2-3 times daily as needed for the pain. Each dose was 2 ml per foot, per hand, and per leg. Over the course of at least 18 months, the patient used the formulation every day during the remainder of the patient's second regiment of chemotherapy. […] In particular, immediately after applying the topical doxycycline for the very first time, the patient found relief in the tingling, burning feeling in the hands and feet. […] They were able to pick up change.
Quantitatively, data was collected for at least 7 months on a “Treatment-Induced Neuropathy Assessment Scale” as shown in Table 1 below. The scale was proven in the scientific literature to be an effective tool to quantify change in symptoms presented by patients with peripheral neuropathy. The patient needed to assess their pain from a scale of 0 (non-existent) to 10 (unbearable pain). Throughout all the categories, the patient's pain went down. In some categories the pain was diminished altogether.

[2] = tested on: idiopathic neuropathy; test: Example 7: human subject with idiopathic neuropathy; conditions: patient statement
Description: The following in vivo study of a human subject diagnosed with idiopathic neuropathy.
A patient presented with idiopathic ice-cold burning sensations on the lateral surface area of the right shin/calf. The pain began 6 years ago and has stayed constant.
The patient then began a new treatment course to alleviate the pain. This treatment is the presently disclosed novel formulation of topical doxycycline hyclate suspension at a concentration of 400 mg/g. Each dose was 4m1 to the affected right shin. They applied it topically to the affected areas when they were feeling the pain. They began applying it only once a day for 2 weeks before bed.

[3] = tested on: multiple sclerosis; test: Example 5: human subject with multiple sclerosis, leg pain triggered by AVONEX injection; conditions: patient history
Description: The following in vivo study of a human subject diagnosed with multiple sclerosis.
A patient presented with excruciating pain in their quadriceps that extended down to their calves. The pain was triggered by the weekly injection of AVONEX (interferon beta-1a) the patient was taking in order to manage their multiple sclerosis. They could not sleep due to the pain.
The patient then began a new treatment course to alleviate the pain. This treatment is a novel formulation of topical doxycycline hyclate suspension at a concentration of 400 mg/g. Each dose was 4 ml per leg and 2 ml per arm/hands. They applied it to the affected areas when they were feeling the pain. They also applied it at work when they would get pains from handling complex machines such as nail guns.

[4] = tested on: osteoarthritis; test: Example 6: human subject with osteoarthritis in both knees; conditions: patient history; side effects put them in a worse state
Description: The following in vivo study of a human subject diagnosed with osteoarthritis.
A patient presented with osteoarthritis in both knees due to a previous trauma years ago in their life. Their knees are in a constant state of pain and inflammation. They also have arthritis in the toe joints and shoulder.
The patient then began a new treatment course to alleviate the pain. This treatment is a novel formulation of topical doxycycline hyclate suspension at a concentration of 400 mg/g. Each dose was 2 ml per knee. They applied it to the affected areas when they were feeling the pain. By the next day the patient feels minimal pain. They apply 1.5 ml of the topical doxycycline suspension daily for a week at night. […] undergoes this treatment once every 4-6 months.

[5] = tested on: osteoarthritis of the left knee; test: Example 2: human subject with osteoarthritis of the left knee; conditions: patient history; once relieved pain for 3 months
Description: The following in vivo study of a human subject diagnosed with osteoarthritis of the left knee.
A patient presented with complaints of left knee pain. The patient had been previously diagnosed with progressive osteoarthritis of the left knee. They had undergone two knee surgeries, but the pain came back within a few months. […] Their specialist said that the they were too young and too overweight for a full knee replacement surgery so they must rely on narcotic pain medications and hydrocortisone shots until they are a good candidate for the replacement surgery.
The patient then began the currently disclosed treatment course to alleviate the pain from their osteoarthritis. As already discussed, the currently disclosed treatment is a topical doxycycline hyclate suspension at a concentration of 400 mg/g. They applied it to the knee twice a day. Each dose was approximately 4 ml per knee spread topically over the knee. Preferably, an application covers the affected area with a thin layer of the suspension. One application was before bedtime and the other was in the morning before going to work. The patient has been using it every day for the past month.

## CC(C)Cc1ccc(C(C)C(=O)O)cc1 (stereo not shown) [ADVIL, ibuprofen]
[1]
  effect of previously attempted medications on the patient's symptoms: failed to address the patient's symptoms

## COc1cc(CNC(=O)CCCC/C=C/C(C)C)ccc1O [CAPSAICIN]
[1]
  effect of previously attempted medications on the patient's symptoms: failed to address the patient's symptoms

## NCC1(CC(=O)O)CCCCC1 [GABAPENTIN]
[1]
  effect of previously attempted medications on the patient's symptoms: failed to address the patient's symptoms

## CC(C)Cc1ccc(C(C)C(=O)O)cc1 (stereo not shown) [Ibuprofen]
[2]
  effect of previous medications on pain: did not help

## CCN(CC)CC(=O)Nc1c(C)cccc1C [LIDOCAINE]
[1]
  effect of previously attempted medications on the patient's symptoms: failed to address the patient's symptoms

## CC(C)Cc1ccc(C(C)C(=O)O)cc1 (stereo not shown) [MOTRIN, ibuprogen]
[3]
  effect of previously taken medications on pain: not as effective as they hoped

## CC(=O)Nc1ccc(O)cc1 [TYLENOL, acetaminophen]
[4]
  effect of previously tried medications on pain: did not help manage the pain
[3]
  effect of previously taken medications on pain: not as effective as they hoped
[1]
  effect of previously attempted medications on the patient's symptoms: failed to address the patient's symptoms

## C[C@]12CCC(=O)C=C1CC[C@@H]1[C@@H]2[C@@H](O)C[C@@]2(C)[C@H]1CC[C@]2(O)C(=O)CO [hydrocortisone]
[5]
  duration of pain relief after shots: 3 weeks
